Test results reported in patent US20230203098A1, “HUMAN TRANSFERRIN RECEPTOR BINDING PEPTIDE” (priority 2020, published 2023).
Read-outs that look alike come from different tables or passages of the source. *1 amine or outer side, *2 acyl side, *3 side chain or, on linkers, in order; H or OH if unused. Where a SMILES comes first, the peptide text is derived from it. Bridges are numbered along the chain shown (N, C = ends). Side-chain parts run from the residue outwards. [ ]: non-standard residue; d: D form. The star is where a group is joined. ξ: configuration not given here. X2 = O=C(O)c1cc(C(=O)*)ccc1-c1c2ccc(=O)cc-2oc2cc(O)ccc12; PEG12 = NCCOCCOCCOCCOCCOCCOCCOCCOCCOCCOCCOCCOCCC(=O)O; NMePhe(3-Cl) = CN[C@@H](Cc1cccc(Cl)c1)C(=O)O; NMeW = CN[C@@H](Cc1c[nH]c2ccccc12)C(=O)O; NMeY = CN[C@@H](Cc1ccc(O)cc1)C(=O)O; NMeF = CN[C@@H](Cc1ccccc1)C(=O)O; Piperazinyl(4-Me) = CN1CCN(*)CC1; 4Pal = N[C@@H](Cc1ccncc1)C(=O)O; PEG4 = NCCOCCOCCOCCOCCC(=O)O; ξαMeK = CC(N)(CCCCN)C(=O)O; Aib = CC(C)(N)C(=O)O; CO = O=C([*:1])[*:2]

Target: transferrin receptor (hTfR) (Homo sapiens, UniProt P02786)
Sequence (P02786 whole entry): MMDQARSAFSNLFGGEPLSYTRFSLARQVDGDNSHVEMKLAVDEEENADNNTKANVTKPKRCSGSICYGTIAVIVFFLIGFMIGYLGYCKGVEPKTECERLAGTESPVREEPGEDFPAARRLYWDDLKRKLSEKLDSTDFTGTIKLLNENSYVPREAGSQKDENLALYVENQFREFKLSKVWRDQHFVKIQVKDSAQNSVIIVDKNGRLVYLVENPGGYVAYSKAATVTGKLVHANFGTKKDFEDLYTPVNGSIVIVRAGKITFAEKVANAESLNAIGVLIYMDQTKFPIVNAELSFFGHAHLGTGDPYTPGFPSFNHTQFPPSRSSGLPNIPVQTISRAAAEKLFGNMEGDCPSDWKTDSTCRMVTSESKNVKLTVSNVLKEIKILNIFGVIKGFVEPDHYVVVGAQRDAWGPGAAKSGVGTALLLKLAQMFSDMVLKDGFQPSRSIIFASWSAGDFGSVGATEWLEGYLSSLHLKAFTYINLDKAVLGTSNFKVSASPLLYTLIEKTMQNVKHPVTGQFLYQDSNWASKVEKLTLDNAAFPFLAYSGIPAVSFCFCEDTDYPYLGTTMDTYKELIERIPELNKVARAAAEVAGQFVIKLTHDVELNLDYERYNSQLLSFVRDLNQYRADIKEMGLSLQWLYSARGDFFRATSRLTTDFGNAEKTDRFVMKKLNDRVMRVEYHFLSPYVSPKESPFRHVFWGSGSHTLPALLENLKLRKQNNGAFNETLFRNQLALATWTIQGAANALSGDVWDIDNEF
Assay: Intermolecular interaction evaluation test between transferrin receptor (hTfR) and peptide by surface plasmon resonance (SPR)
Type: binding
Outline: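 hTfR captured on Ni-NTA chip then amine-coupled; peptides run single-cycle kinetics at 5–100 nM in 10 mM HEPES pH 8.0, 150 mM NaCl, 0.05% Tween 20, 0.1% BSA, 1.0% DMSO. KD from least-squares curve fitting of sensorgrams.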

[1] = surface plasmon resonance, hTfR, read-out: KD value for hTfR by SPR (class symbol)
[2] = SPR, hTfR, class symbols A-D, read-out: KD (column without head, continuation of the table series)
[3] = binding to hTfR by SPR, Table 2 peptides, read-out: KD value (SPR) class

In the case of `CC[C@H](C)[C@@H]1NC(=O)[C@H](Cc2ccc(O)cc2)NC(=O)[C@H](Cc2ccc(O)cc2)NC(=O)[C@H](CC(N)=O)NC(=O)[C@H](Cc2c[nH]c3ccccc23)NC(=O)[C@H](C(C)C)NC(=O)[C@H](Cc2ccccc2)N(C)C(=O)[C@H](C(C)C)NC(=O)[C@H](C)NC(=O)CSC[C@@H](C(=O)NCCOCCOCCOCCOCCC(=O)NCCOCCOCCOCCOCCC(=O)N[C@@H](CCCCNC(=O)C2CCC(CN3C(=O)C=CC3=O)CC2)C(N)=O)NC(=O)[C@H](Cc2ccc(O)cc2)N(C)C(=O)[C@H](Cc2ccc(O)cc2)NC(=O)[C@H](CCCNC(=N)N)NC(=O)[C@H](CCCNC(=N)N)NC(=O)[C@H]([C@@H](C)CC)NC1=O` (some centres unmarked) [compound 181], the Kd (hTfR binding by SPR, hTfR No. 894 variant peptides, linker-added peptides and payload conjugates (Table 2), read-out: KD value obtained from the SPR measurement) is reported as under 1 nM.
`CC[C@H](C)[C@@H]1NC(=O)[C@H](Cc2ccc(OC)cc2)NC(=O)[C@H](Cc2ccc(O)cc2)NC(=O)[C@H](CC(N)=O)NC(=O)[C@H](Cc2c[nH]c3ccccc23)N(C)C(=O)[C@H](C(C)C)NC(=O)[C@H](Cc2cccc(Cl)c2)N(C)C(=O)[C@H](C(C)C)NC(=O)[C@H](C)NC(=O)CSC[C@@H](C(=O)N[C@H](CCC(=O)O)C(=O)O)NC(=O)[C@H](Cc2ccc(O)cc2)N(C)C(=O)[C@H](Cc2ccccc2)NC(=O)[C@H](CCCNC(=N)N)NC(=O)[C@H](CCCNC(=N)N)NC(=O)[C@H]([C@@H](C)CC)NC1=O` [compound 387] gave a Kd [1] of 1 to 100 nM.
With `CC[C@H](C)[C@@H]1NC(=O)[C@H](Cc2ccc(OCCN)cc2)NC(=O)[C@H](Cc2ccc(O)cc2)NC(=O)[C@H](CC(N)=O)NC(=O)[C@H](Cc2c[nH]c3ccccc23)NC(=O)[C@H](C(C)C)NC(=O)[C@H](Cc2ccccc2)N(C)C(=O)[C@H](C(C)C)NC(=O)[C@H](C)NC(=O)CSC[C@@H](C(N)=O)NC(=O)[C@H](Cc2ccc(O)cc2)N(C)C(=O)[C@H](Cc2ccccc2)NC(=O)[C@H](CCCNC(=N)N)NC(=O)[C@H](CCCCN)NC(=O)[C@H]([C@@H](C)CC)NC1=O` [compound 521] the Kd [2] was 1 to 100 nM.
`CC[C@H](C)[C@@H]1NC(=O)[C@H](Cc2ccc(OCCN)cc2)NC(=O)[C@H](Cc2ccc(O)cc2)NC(=O)[C@H](CC(N)=O)NC(=O)[C@H](Cc2c[nH]c3ccccc23)NC(=O)[C@H](C(C)C)NC(=O)[C@H](Cc2ccccc2)N(C)C(=O)[C@H](C(C)C)NC(=O)[C@H](C)NC(=O)CSC[C@@H](C(N)=O)NC(=O)[C@H](Cc2ccc(O)cc2)N(C)C(=O)[C@H](Cc2ccccc2)NC(=O)[C@@H](CCCNC(=N)N)NC(=O)[C@H](CCCNC(=N)N)NC(=O)[C@H]([C@@H](C)CC)NC1=O` [compound 523] was tested, and the Kd [2] was 100 to 1000 nM.
Work on `CC[C@H](C)[C@@H]1NC(=O)[C@H](Cc2ccc(O)cc2)NC(=O)[C@H](Cc2ccc(O)cc2)NC(=O)[C@H](CC(N)=O)NC(=O)[C@H](Cc2c[nH]c3ccccc23)N(C)C(=O)[C@H](C(C)C)NC(=O)[C@H](Cc2ccccc2)NC(=O)[C@H](C(C)C)NC(=O)[C@H](C)NC(=O)CSC[C@@H](C(=O)NCCOCCOCCOCCOCCC(N)=O)NC(=O)[C@H](Cc2ccc(O)cc2)N(C)C(=O)[C@H](Cc2ccc(O)cc2)NC(=O)[C@H](CCCNC(=N)N)NC(=O)[C@H](CCCNC(=N)N)NC(=O)[C@H]([C@@H](C)CC)NC1=O` [compound 264] yielded a Kd [3] of under 1 nM.
`CC[C@H](C)[C@@H]1NC(=O)[C@H](Cc2ccc(O)cc2)NC(=O)[C@H](Cc2ccc(O)cc2)NC(=O)[C@H](CC(N)=O)NC(=O)[C@H](Cc2c[nH]c3ccccc23)NC(=O)[C@H](C(C)C)NC(=O)[C@H](Cc2ccccc2)N(C)C(=O)[C@H](C(C)C)NC(=O)[C@H](C)NC(=O)CSC[C@@H](C(=O)NCC(=O)N[C@@H](CCCCN)C(N)=O)NC(=O)[C@H](Cc2ccc(O)cc2)N(C)C(=O)[C@H](Cc2ccc(O)cc2)NC(=O)[C@H](CCCNC(=N)N)NC(=O)[C@H](CCCCN)NC(=O)[C@H]([C@@H](C)CC)NC1=O` [compound 526] was tested, and the Kd [2] was 1 to 100 nM.
Work on `CC[C@H](C)[C@@H]1NC(=O)[C@H](Cc2ccc(OC)cc2)NC(=O)[C@H](Cc2ccc(O)cc2)NC(=O)[C@H](CC(N)=O)NC(=O)[C@H](Cc2c[nH]c3ccccc23)N(C)C(=O)[C@H](C(C)C)NC(=O)[C@H](Cc2cccc(Cl)c2)N(C)C(=O)[C@H](C(C)C)NC(=O)[C@H](C)NC(=O)CSC[C@@H](C(=O)NCCOCCOCCOCCOCCC(N)=O)NC(=O)[C@H](Cc2ccc(O)cc2)N(C)C(=O)[C@H](Cc2ccccc2)NC(=O)[C@@H](CCCNC(=N)N)NC(=O)C(C)(CCCCN)NC(=O)[C@H]([C@@H](C)CC)NC1=O` (some centres unmarked) [compound 380] ({CH2CO}-AV[NMePhe(3-Cl)]V[NMeW]NYY(Me)II[ξαMeK][dR]F[NMeY]C[PEG4]-NH2; thioether N-15) yielded a Kd [1] of 1 to 100 nM.
`CC[C@H](C)[C@@H]1NC(=O)[C@H](Cc2ccc(OC)cc2)NC(=O)[C@H](Cc2ccc(O)cc2)NC(=O)[C@H](CC(N)=O)NC(=O)[C@H](Cc2c[nH]c3ccccc23)N(C)C(=O)[C@H](C(C)C)NC(=O)[C@H](Cc2cccc(Cl)c2)N(C)C(=O)[C@H](C(C)C)NC(=O)[C@H](C)NC(=O)CSC[C@@H](C(N)=O)NC(=O)[C@H](Cc2ccc(O)cc2)N(C)C(=O)[C@H](Cc2ccccc2)NC(=O)[C@@H](CCCNC(=N)N)NC(=O)[C@H](CCCNC(=N)N)NC(=O)[C@H]([C@@H](C)CC)NC1=O` [compound 397] gave a Kd [1] of 1 to 100 nM.
With `CC[C@H](C)[C@@H]1NC(=O)[C@H](Cc2ccc(O)cc2)NC(=O)[C@H](Cc2ccc(O)cc2)NC(=O)[C@H](CC(N)=O)NC(=O)[C@H](Cc2c[nH]c3ccccc23)NC(=O)[C@H](C(C)C)NC(=O)[C@H](Cc2ccccc2)N(C)C(=O)[C@H](Cc2ccccc2)NC(=O)[C@H](C)NC(=O)CSC[C@@H](C(=O)NCCOCCOCCOCCOCCOCCOCCOCCOCCOCCOCCOCCOCCC(N)=O)NC(=O)[C@H](Cc2ccc(O)cc2)N(C)C(=O)[C@H](Cc2ccc(O)cc2)NC(=O)[C@H](CCCNC(=N)N)NC(=O)[C@H](CCCNC(=N)N)NC(=O)[C@H]([C@@H](C)CC)NC1=O` [compound 133] ({CH2CO}-AF[NMeF]VWNYYIIRRY[NMeY]C[PEG12]-NH2; thioether N-15) the Kd (SPR, hTfR No. 894 variants with PEG12c linker (Table 2), read-out: KD) was 1 to 100 nM.
`CC[C@H](C)[C@@H]1NC(=O)[C@H](Cc2ccc(O)cc2)NC(=O)[C@H](Cc2ccc(O)cc2)NC(=O)[C@H](CC(N)=O)NC(=O)[C@H](Cc2c[nH]c3ccccc23)N(C)C(=O)[C@H](C(C)C)NC(=O)[C@H](Cc2cccc(Cl)c2)N(C)C(=O)[C@@H]2CCCC(=O)NCCCC[C@H](NC(=O)[C@H]([C@@H](C)CC)NC1=O)C(=O)N[C@@H](CCCNC(=N)N)C(=O)N[C@@H](Cc1ccc(O)cc1)C(=O)N(C)[C@@H](Cc1ccc(O)cc1)C(=O)N[C@H](C(N)=O)CSCC(=O)N[C@@H](C)C(=O)N2` [compound 409] gave a Kd [1] of 1 to 100 nM.
`CC[C@H](C)[C@@H]1NC(=O)[C@H](Cc2ccc(OC)cc2)NC(=O)[C@H](Cc2ccc(O)cc2)NC(=O)[C@H](CC(N)=O)NC(=O)[C@H](Cc2c[nH]c3ccccc23)N(C)C(=O)[C@H](C(C)C)NC(=O)[C@H](Cc2cccc(Cl)c2)N(C)C(=O)[C@H](C(C)C)NC(=O)[C@H](C)NC(=O)CSC[C@@H](C(N)=O)NC(=O)[C@H](Cc2ccc(O)cc2)N(C)C(=O)[C@H](Cc2ccccc2)NC(=O)[C@@H](C)NC(=O)[C@H](CCCNC(=N)N)N(C)C(=O)[C@H]([C@@H](C)CC)NC1=O` [compound 383] was tested, and the Kd [1] was 100 to 1000 nM.
With `CC[C@H](C)[C@@H]1NC(=O)[C@H](Cc2ccccc2)NC(=O)[C@H](Cc2ccc(O)cc2)NC(=O)[C@H](CC(N)=O)NC(=O)[C@H](Cc2c[nH]c3ccccc23)NC(=O)[C@H](C(C)C)NC(=O)[C@H](Cc2c[nH]c3ccccc23)NC(=O)[C@H](C(C)C)NC(=O)[C@H](C)NC(=O)CSC[C@@H](C(=O)NCCOCCOCCOCCOCCOCCOCCOCCOCCOCCOCCOCCOCCC(=O)N[C@@H](CCCCNC(=O)c2ccc(-c3c4ccc(=O)cc-4oc4cc(O)ccc34)c(C(=O)O)c2)C(N)=O)NC(=O)[C@H](Cc2c[nH]cn2)NC(=O)[C@H](CCCNC(=N)N)NC(=O)[C@@H]2CCCN2C(=O)[C@H]([C@@H](C)CC)NC1=O` [compound 208] ({CH2CO}-AVWVWNYFIIPRHC[PEG12]K(X2)-NH2; thioether N-14) the Kd (SPR, peptides, linker-added peptides and FITC conjugates, Patent ID 203-230, read-out: KD) was 1 to 100 nM.
`CC[C@H](C)[C@@H]1NC(=O)[C@H](Cc2ccc(O)cc2)NC(=O)[C@H](Cc2ccc(O)cc2)NC(=O)[C@H](CC(N)=O)NC(=O)[C@H](Cc2c[nH]c3ccccc23)NC(=O)[C@H](C(C)C)NC(=O)[C@H](Cc2ccccc2)N(C)C(=O)[C@H](C(C)C)NC(=O)[C@H](C)NC(=O)CSC[C@@H](C(=O)NCCOCCOCCOCCOCCC(N)=O)NC(=O)[C@H](Cc2ccc(O)cc2)N(C)C(=O)[C@H](Cc2ccc(O)cc2)NC(=O)[C@H](CCCCNC(=O)N2CCN(C)CC2)NC(=O)C(C)(C)NC(=O)[C@H]([C@@H](C)CC)NC1=O` [compound 290] ({CH2CO}-AV[NMeF]VWNYYII[Aib]K([CO-Piperazinyl(4-Me)])Y[NMeY]C[PEG4]-NH2; thioether N-15) gave a Kd [3] of over 1000 nM.
`CC[C@H](C)[C@@H]1NC(=O)[C@H](Cc2ccncc2)NC(=O)[C@H](Cc2ccc(O)cc2)NC(=O)[C@H](CC(N)=O)NC(=O)[C@H](Cc2c[nH]c3ccccc23)N(C)C(=O)[C@H](C(C)C)NC(=O)[C@H](Cc2cccc(Cl)c2)N(C)C(=O)[C@H](C(C)C)NC(=O)[C@H](C)NC(=O)CSC[C@@H](C(N)=O)NC(=O)[C@H](Cc2ccc(O)cc2)N(C)C(=O)[C@H](Cc2ccccc2)NC(=O)[C@@H](CCCNC(=N)N)NC(=O)[C@H](CCCNC(=N)N)NC(=O)[C@H]([C@@H](C)CC)NC1=O` [compound 455] ({CH2CO}-AV[NMePhe(3-Cl)]V[NMeW]NY[4Pal]IIR[dR]F[NMeY]C-NH2; thioether N-15) was tested, and the Kd (SPR, hTfR, class symbols A-D, read-out: KD) was 1 to 100 nM.
